Non-standard residues stand in square brackets, D forms with d. Residues, ends and D or L forms follow the SMILES beside them. *: point of attachment. Decanoyl = CCCCCCCCCC(=O)*
How the values were obtained:
Serum albumin (P07724) = molecular target: T1, Serum albumin (P07724) (Mus musculus, UniProt P07724); test: Mass spectrometry of mouse plasma proteins bound to bead-immobilized peptide; type: binding; details: intensity bound to L-form / D-form of C10-KR8
T1 construct: incubated with 5% mouse plasma; from tissue; host or cells: mouse plasma (5%)
Experimental: (§1) Dynabeads M-370 amine (2×10^9 beads/mL, 50 μL; Thermo Fisher Scientific) were washed 3 times in sterile PBS (1 mL; GIBCO) and reacted with a bifunctional SM(PEG)4 cross-linker (5 mg/mL in DMSO) containing N-hydroxysuccinimide (NHS) ester and maleimide functional groups. A stable covalent bond between the amino group of beads and the NHS ester of the cross-linker was formed in PBS at pH 7.2 at room temperature for 24 hours with shaking at 80 rpm. The beads were then washed six times with PBS to remove nonreacted cross-linker. Next, peptide C10-KR8 (with a cysteine at the N-terminus) at 5 mg/mL was reacted with the free maleimide group in PBS for 24 hours at room temperature with shaking at 80 rpm. Another round of washing was conducted to remove the nonreacted peptides. Both the L-and D-forms of the peptide were coupled in the same manner. A portion of the beads without peptide coupling was saved as a control.
(§2) For serum binding experiments, the beads were resuspended in 500 μL of PBS; 200-μL aliquots of the coated and control dynabead were incubated with 5% mouse plasma for 18 hours at 37° C. After binding, the beads were washed six times with PBS to remove unbound proteins. Finally, the beads were suspended in 50 μL of PBS for mass spectrophotometric analysis to identify peptide-binding partners.
(§3) The samples were reduced by 10 mM dithiothreitol (DTT) and incubated for 30 minutes at 56° C. and back to room temperature. A final concentration of 50 mM iodoacetamide was added to alkylate free cysteines followed by further incubation for 20 min in the dark. Bound proteins were enzymatically digested by trypsin (4 μL of 0.5 μg/mL) overnight. A 60 […] portion was transferred to a new Eppendorf® tube and dried for 2 hours. The samples were then dissolved in 20 μL of 2% acetonitrile with 0.1% formic acid before being loaded to Q-tip columns (Pepclean, C18 spin column). Column was activated by pipetting in and out (4× times), 10 μL of 70% acetonitrile with 0.1% formic acid, and equilibrating with the same volume of 2% acetonitrile with 0.1% formic acid. Binding of the samples was done by mixing more than 10 × times, followed by washing in the same buffer (2% acetonitrile with 0.1% formic acid). The bound peptides were then eluted with 20 μL of 70% acetonitrile with 0.1% formic acid. Samples were subjected to LC-MS analysis after being suspended in the desired buffer.
(§4) Extracted peptides were resuspended in 2% acetonitrile (ACN) and 0.1% formic acid (FA) and loaded onto trap column Acclaim™ PepMap™ 100 75 μm×2 cm C18 LC Columns (Thermo Scientific) at a flow rate of 4 μL/minute. These were then separated with a Thermo RSLC UltiMate™ 3000 on a Thermo Easy-Spray PepMap™ M RSLC C18 75 μm×50 cm C-18 2 μm column (Thermo Scientific) with a step gradient of 4-25% solvent B (0.1% FA in 80% ACN) from 10 to 37 minutes and 25-45% solvent B for 37-46 minutes at 300 nL/min and 50° C. with a 70 minute total run time. Eluted peptides were analyzed by a Thermo Orbitrap Fusion™ Lumos™ Tribrid™ (Thermo Scientific) mass spectrometer in a data dependent acquisition mode. A survey full scan MS (from m/z 350-1800) was acquired in the orbitrap with a resolution of 120000. The AGC target for MS1 was set as 4×10^5 and the ion filling time set as 100 ms. The most intense ions with charge state 2-6 were isolated in 3 second cycle and fragmented using HCD fragmentation with 40% normalized collision energy and detected at a mass resolution of 30000 at 200 m/z. The AGC target for MS/MS was set as 5×10^4 and ion filling time set 60 ms dynamic exclusion was set for 30 seconds with a 10 ppm mass window. Protein identification was performed by searching MS/MS data against the Swiss-Prot mouse protein database. The search was set up for full tryptic peptides with a maximum of two missed cleavage sites. Acetylation of protein N-terminus and oxidized methionine were included as variable modifications, and carbamidomethylation of cysteine was set as fixed modification. […]

[1] = molecular target: T2, Apolipoprotein A-II (P09813) (Mus musculus, UniProt P09813); test: as above; type: binding; details: intensity bound to L-form / D-form of C10-KR8
T2 construct: incubated with 5% mouse plasma; from tissue; host or cells: mouse plasma (5%)
Experimental: as §1, §2, §3, §4

[2] = tested on: S. aureus USA300 transposon mutant SAUSA300_1037 (pheS); test: Antimicrobial susceptibility of transposon mutant; type: cell-based; details: mutant SAUSA300_1037 pheS versus WT
Experimental: (§5) The antimicrobial susceptibility of over 20 MRSA transposon mutants were also tested, based on a transposon library screening, in the presence of LL-37 peptides (Golla, et al. (2020) ACS Infect. Dis., 6:1866-1881). This Nebraska Transposon Mutant Library of S. aureus USA300 consists of 1920 mutants, each with one nonessential gene disabled due to a transposon insertion (Fey, et al. (2013) mBio 4:e00537-12). The correct insertion of the transposon to each Staph mutant had been verified (Golla, et al. (2020) ACS Infect. Dis., 6:1866-1881). Antimicrobial susceptibility to the new peptide C10-KR8d was evaluated in the same manner as MIC assays. Susceptible strains could be inhibited at a peptide concentration lower than the MIC against the wild strain S. aureus JE2.

[3] = tested on: S. aureus USA300 transposon mutant SAUSA300_1089 (lspA); test: Antimicrobial susceptibility of transposon mutant; type: cell-based; details: mutant SAUSA300_1089 lspA versus WT
Experimental: as §5

[4] = tested on: S. aureus USA300 transposon mutant SAUSA300_1255 (mprF); test: Antimicrobial susceptibility of transposon mutant; type: cell-based; details: mutant SAUSA300_1255 mprF versus WT
Experimental: as §5

[5] = tested on: S. aureus USA300 transposon mutant SAUSA300_0645 (graR); test: Antimicrobial susceptibility of transposon mutant; type: cell-based; details: mutant SAUSA300_0645 graR versus WT
Experimental: as §5

[6] = tested on: S. aureus USA300 transposon mutant SAUSA300_0646 (graS); test: Antimicrobial susceptibility of transposon mutant; type: cell-based; details: mutant SAUSA300_0646 graS versus WT
Experimental: as §5

[7] = tested on: S. aureus USA300 transposon mutant SAUSA300_1865 (vraR); test: Antimicrobial susceptibility of transposon mutant; type: cell-based; details: mutant SAUSA300_1865 vraR versus WT
Experimental: as §5

[8] = tested on: S. aureus USA300 transposon mutant SAUSA300_0988 (trkA); test: Antimicrobial susceptibility of transposon mutant; type: cell-based; details: mutant SAUSA300_0988 trkA versus WT
Experimental: as §5

T1 sequence (P07724 25-608): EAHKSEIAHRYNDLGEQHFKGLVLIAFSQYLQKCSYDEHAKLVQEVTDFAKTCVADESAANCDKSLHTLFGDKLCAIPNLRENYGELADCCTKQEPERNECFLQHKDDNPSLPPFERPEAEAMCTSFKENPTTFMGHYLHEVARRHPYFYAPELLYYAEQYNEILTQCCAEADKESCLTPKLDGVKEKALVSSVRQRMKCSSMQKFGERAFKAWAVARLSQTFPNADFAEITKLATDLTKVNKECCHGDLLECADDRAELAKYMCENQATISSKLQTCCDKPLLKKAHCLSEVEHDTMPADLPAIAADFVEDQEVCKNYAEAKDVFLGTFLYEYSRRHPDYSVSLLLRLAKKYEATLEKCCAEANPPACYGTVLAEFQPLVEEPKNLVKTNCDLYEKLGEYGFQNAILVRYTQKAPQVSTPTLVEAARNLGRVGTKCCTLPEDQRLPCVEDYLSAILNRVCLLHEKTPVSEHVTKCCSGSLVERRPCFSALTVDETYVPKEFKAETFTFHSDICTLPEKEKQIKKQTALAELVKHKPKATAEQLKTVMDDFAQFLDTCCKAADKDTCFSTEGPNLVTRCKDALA
T2 sequence (P09813 19-102): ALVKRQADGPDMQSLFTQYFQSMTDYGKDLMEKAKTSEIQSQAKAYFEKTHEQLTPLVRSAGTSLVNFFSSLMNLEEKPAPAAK

Structure (SMILES)	L/D Ratio, Serum albumin (Serum albumin (P07724))	L/D Ratio, Apolipoprotein A-II [1]	Susceptible? [2]	Susceptible? [3]	Susceptible? [4]	Susceptible? [5]	Susceptible? [6]	Susceptible? [7]	Susceptible? [8]
CCCCCCCCCC(=O)N[C@@H](CCCCN)C(=O)N[C@@H](CCCNC(=N)N)C(=O)N[C@H](C(=O)N[C@@H](Cc1c[nH]c2ccccc12)C(=O)N[C@@H](CCC(N)=O)C(=O)N[C@@H](CCCNC(=N)N)C(=O)N[C@H](C(=O)N[C@@H](CCCCN)C(N)=O)[C@@H](C)CC)[C@@H](C)CC [Peptide C10-KR8] (Decanoyl-KRIWQRIK-NH2)	2.28	0.00147	–	–	–	–	–	–	–
CCCCCCCCCC(=O)N[C@H](CCCCN)C(=O)N[C@H](CCCNC(=N)N)C(=O)N[C@@H](C(=O)N[C@H](Cc1c[nH]c2ccccc12)C(=O)N[C@H](CCC(N)=O)C(=O)N[C@H](CCCNC(=N)N)C(=O)N[C@@H](C(=O)N[C@H](CCCCN)C(N)=O)[C@H](C)CC)[C@H](C)CC [Peptide C10-KR8d] (Decanoyl-[dK][dR][dI][dW][dQ][dR][dI][dK]-NH2)	–	–	Yes	Yes	Yes	Yes	Yes	Yes	Yes

From patent publication US20240294572A1, “Antimicrobial Peptides” (priority 2021, published 2024)
